From patent publication US20250368649A1, “TETRAHYDROPYRIDOPYRIMIDINE PAN-KRAS INHIBITORS” (Mirati Therapeutics, Inc., priority 2022, published 2025)

Assays:
KRas G12C = KRas G12C (Homo sapiens, UniProt P01116, G12C); type: binding; details: single point, 10 nM compound, read-out: Binding to KRas (% inhibition at 10 nM) G12C
MKN1 cells = assay: Inhibition of KRas-mediated phosphorylation of ERK (Cisbio HTRF pERK), MKN1 cells; type: cell-based; details: Homo sapiens, MKN-1, 3 hour compound incubation, Cisbio pERK HTRF
Outline: (§1)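 Seeding density of 6,000 cells per well was used, with cultures kept in RPMI/10% FBS from day 1.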

KRas G12S = KRas G12S (Homo sapiens, UniProt P01116, G12S); type: binding; details: single point, 10 nM compound, read-out: Binding to KRas (% inhibition at 10 nM) G12S
A549 cells = assay: Inhibition of KRas-mediated phosphorylation of ERK (Cisbio HTRF pERK), A549 cells; type: cell-based; details: Homo sapiens; for IC50: A549, 3 h, 3 hr compound incubation, Cisbio pERK HTRF; for inhibition at 0.1 µM: single point at 100 nM, 3 hrs compound incubation
H358 cells = assay: Inhibition of KRas-mediated phosphorylation of ERK (Cisbio HTRF pERK), H358 cells; type: cell-based; details: Homo sapiens; for IC50: NCI-H358, 3 h, 3 hr compound incubation, Cisbio pERK HTRF; for inhibition at 0.1 µM: NCI-H358, single point at 100 nM, 3 hrs compound incubation
ASPC1 cells = assay: Inhibition of KRas-mediated phosphorylation of ERK (Cisbio HTRF pERK), ASPC1 cells; type: cell-based; details: Homo sapiens, AsPC-1 cells; for IC50: ASPC1, 3 h, 3 hr compound incubation, Cisbio pERK HTRF
KRas G12R = KRas G12R (Homo sapiens, UniProt P01116, G12R); assay: biochemical; details: Binding to KRas (IC50 nM) G12R, TR-FRET displacement, KRas G12R
H460 cells = assay: Inhibition of KRas-mediated phosphorylation of ERK (Cisbio HTRF pERK), H460 cells; type: cell-based; details: Homo sapiens; for IC50: NCI-H460, 3 h, 3 hr compound incubation, Cisbio pERK HTRF; for inhibition at 0.1 µM: NCI-H460, single point at 100 nM, 3 hrs compound incubation
HCT116 cells = assay: Inhibition of KRas-mediated phosphorylation of ERK (Cisbio HTRF pERK), HCT116 cells; type: cell-based; details: Homo sapiens; for IC50: HCT-116, 3 h, 3 hr compound incubation, Cisbio pERK HTRF; for inhibition at 0.1 µM: HCT-116, single point at 100 nM, 3 hrs compound incubation
KRas Q61H = KRas Q61H (Homo sapiens, UniProt P01116, Q61H); assay: KRas binding assay (TR-FRET displacement), KRas Q61H; details: single point, 10 nM compound
KRas G12A = KRas G12A (Homo sapiens, UniProt P01116, G12A); type: binding; details: single point, 10 nM compound, read-out: Binding to KRas (% inhibition at 10 nM) G12A
H727 cells = assay: Inhibition of KRas-mediated phosphorylation of ERK (Cisbio HTRF pERK), H727 cells; type: cell-based; details: Homo sapiens; for IC50: NCI-H727, 3 h, 3 hr compound incubation, Cisbio pERK HTRF
KRas G12V = KRas G12V (Homo sapiens, UniProt P01116, G12V); assay: biochemical; details: Binding to KRas (IC50 nM) G12V, TR-FRET displacement, KRas G12V
KRas G12D = KRas G12D (Homo sapiens, UniProt P01116, G12D); assay: biochemical; details: Binding to KRas (IC50 nM) G12D, TR-FRET displacement, KRas G12D
PSN1 cells = assay: Inhibition of KRas-mediated phosphorylation of ERK (Cisbio HTRF pERK), PSN1 cells; type: cell-based; details: Homo sapiens, PSN1, 3 h, 3 hour compound incubation, Cisbio pERK HTRF
Outline: as §1

KRas G13D = KRas G13D (Homo sapiens, UniProt P01116, G13D); type: binding; details: single point, 10 nM compound, read-out: Binding to KRas (% inhibition at 10 nM) G13D
KRas WT = KRas WT (Homo sapiens, UniProt P01116); assay: KRas binding assay (TR-FRET displacement), KRas WT; details: single point, 10 nM compound
KRas WT, sequence (P01116 1-169 isoform P01116-2): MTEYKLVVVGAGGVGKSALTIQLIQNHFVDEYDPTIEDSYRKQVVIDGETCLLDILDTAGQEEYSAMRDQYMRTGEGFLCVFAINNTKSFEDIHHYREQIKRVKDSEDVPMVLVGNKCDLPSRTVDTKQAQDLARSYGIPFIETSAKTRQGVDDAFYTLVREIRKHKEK

KRas G12R, sequence (P01116 1-169 isoform P01116-2 G12R): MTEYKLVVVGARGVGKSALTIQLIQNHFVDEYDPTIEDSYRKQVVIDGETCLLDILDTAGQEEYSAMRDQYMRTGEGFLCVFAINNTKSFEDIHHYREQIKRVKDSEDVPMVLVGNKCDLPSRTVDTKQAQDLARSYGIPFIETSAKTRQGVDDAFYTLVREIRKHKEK
KRas G13D, sequence (P01116 1-169 isoform P01116-2 G13D): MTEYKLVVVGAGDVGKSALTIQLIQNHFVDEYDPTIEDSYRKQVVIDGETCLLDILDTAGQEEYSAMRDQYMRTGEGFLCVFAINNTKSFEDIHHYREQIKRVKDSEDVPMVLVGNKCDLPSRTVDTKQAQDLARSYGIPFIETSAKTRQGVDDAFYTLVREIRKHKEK
KRas G12D, sequence (P01116 1-169 isoform P01116-2 G12D): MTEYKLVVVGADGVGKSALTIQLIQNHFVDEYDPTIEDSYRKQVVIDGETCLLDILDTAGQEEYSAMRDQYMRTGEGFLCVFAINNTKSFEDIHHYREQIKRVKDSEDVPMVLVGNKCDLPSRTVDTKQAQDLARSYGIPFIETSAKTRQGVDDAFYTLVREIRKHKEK
KRas G12A, sequence (P01116 1-169 isoform P01116-2 G12A): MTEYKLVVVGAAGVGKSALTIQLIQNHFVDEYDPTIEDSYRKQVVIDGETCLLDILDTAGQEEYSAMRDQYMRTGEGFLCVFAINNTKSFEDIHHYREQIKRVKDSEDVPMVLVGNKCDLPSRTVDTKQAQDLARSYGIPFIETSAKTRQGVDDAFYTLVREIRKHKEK
KRas G12V, sequence (P01116 1-169 isoform P01116-2 G12V): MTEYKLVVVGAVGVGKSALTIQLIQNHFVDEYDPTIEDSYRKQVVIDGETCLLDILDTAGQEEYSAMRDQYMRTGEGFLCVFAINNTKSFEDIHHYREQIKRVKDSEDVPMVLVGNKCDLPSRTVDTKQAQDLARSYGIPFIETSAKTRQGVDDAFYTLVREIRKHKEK
KRas Q61H, sequence (P01116 1-169 isoform P01116-2 Q61H): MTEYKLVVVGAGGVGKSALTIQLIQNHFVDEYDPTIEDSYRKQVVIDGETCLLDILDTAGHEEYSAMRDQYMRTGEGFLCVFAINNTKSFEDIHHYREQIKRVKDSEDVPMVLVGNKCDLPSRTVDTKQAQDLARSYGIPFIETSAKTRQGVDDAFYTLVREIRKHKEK
KRas G12C, sequence (P01116 1-169 isoform P01116-2 G12C): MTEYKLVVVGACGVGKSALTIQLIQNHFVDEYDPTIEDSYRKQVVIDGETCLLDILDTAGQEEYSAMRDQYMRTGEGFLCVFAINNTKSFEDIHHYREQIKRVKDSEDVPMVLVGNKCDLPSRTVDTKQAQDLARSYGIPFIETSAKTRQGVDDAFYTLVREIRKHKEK
KRas G12S, sequence (P01116 1-169 isoform P01116-2 G12S): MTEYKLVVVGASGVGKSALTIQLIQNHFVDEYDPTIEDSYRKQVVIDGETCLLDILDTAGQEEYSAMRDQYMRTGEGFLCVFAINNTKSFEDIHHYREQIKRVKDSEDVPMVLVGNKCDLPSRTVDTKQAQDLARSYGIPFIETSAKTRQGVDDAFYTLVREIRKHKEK

Compound | inhibition at 0.01 µM (KRas G12C) | IC50 (MKN1 cells) | inhibition at 0.01 µM (KRas G12S) | IC50 (A549 cells) | IC50 (H358 cells) | IC50 (ASPC1 cells) | IC50 (KRas G12R) | IC50 (H460 cells) | inhibition at 0.1 µM (H460 cells) | IC50 (HCT116 cells) | inhibition at 0.01 µM (KRas Q61H) | inhibition at 0.01 µM (KRas G12A) | IC50 (H727 cells) | IC50 (KRas G12V) | IC50 (KRas G12D) | IC50 (PSN1 cells) | inhibition at 0.01 µM (KRas G13D) | inhibition at 0.01 µM (KRas WT) | inhibition at 0.1 µM (A549 cells) | inhibition at 0.1 µM (H358 cells) | other results
CCc1c(F)ccc2cc(O)cc(N3CCc4c(nc(OC[C@@]56CCCN5C[C@H](F)C6)nc4N4CCCCn5nc(C(=O)N6CCOCC6)cc5C4)C3)c12 [Example 360, (5-(7-(8-ethyl-7-fluoro-3-hydroxynaphthalen-1-yl)-2-(((2R,7aS)-2-fluorotetrahydro-1H-pyrrolizin-7a(5H)-yl)methoxy)-5,6,7,8-tetrahydropyrido[3,4-d]pyrimidin-4-yl)-4,5,6,7,8,9-hexahydropyrazolo[1,5-a][1,4]diazocin-2-yl)(morpholino)methanone] | 100% | 12 nM | 99% | 9 nM | 2 nM | 9 nM | < 2 nM | 20 nM | 87% | 67 nM | 97% | 98% | 4 nM | < 2 nM | < 2 nM | 1370 nM | 97% | 97% | – | – | inhibition at 0.1 µM (HCT116 cells): 49%
CCNC(=O)c1nn2c(c1Cl)CN(c1nc(OC[C@@]34CCCN3C[C@H](F)C4)nc3c1CCN(c1cc(O)cc4ccc(F)c(CC)c14)C3)CCC2 [Example 367, 3-chloro-N-ethyl-5-(7-(8-ethyl-7-fluoro-3-hydroxynaphthalen-1-yl)-2-(((2R,7aS)-2-fluorohexahydro-1H-pyrrolizin-7a-yl)methoxy)-5,6,7,8-tetrahydropyrido[3,4-d]pyrimidin-4-yl)-5,6,7,8-tetrahydro-4H-pyrazolo[1,5-a][1,4]diazepine-2-carboxamide] | 100% | 4.2 nM | 99% | 5 nM | 1 nM | 2 nM | < 2 nM | 24 nM | 83% | 40 nM | 99% | 99% | 3 nM | < 2 nM | < 2 nM | 2100 nM | 98% | 98% | 85% | 101% | inhibition at 0.1 µM (HCT116 cells): 62%
CCc1c(F)ccc2cc(O)cc(N3CCc4c(nc(OC[C@@]56CCCN5C[C@H](F)C6)nc4N4CCCn5nc(C(=O)N(C)C)c(OC)c5C4)C3)c12 [Example 370, 5-(7-(8-ethyl-7-fluoro-3-hydroxynaphthalen-1-yl)-2-(((2R,7aS)-2-fluorohexahydro-1H-pyrrolizin-7a-yl)methoxy)-5,6,7,8-tetrahydropyrido[3,4-d]pyrimidin-4-yl)-3-methoxy-N,N-dimethyl-5,6,7,8-tetrahydro-4H-pyrazolo[1,5-a][1,4]diazepine-2-carboxamide] | 99% | 6.9 nM | 99% | 36 nM | 6 nM | 9 nM | < 2 nM | 43 nM | – | 132 nM | 98% | 97% | 20 nM | < 2 nM | < 2 nM | > 10000 nM | 98% | 97% | 65% | 97% | –
CCc1c(F)ccc2cc(O)cc(N3CCc4c(nc(OC[C@@]56CCCN5C[C@H](F)C6)nc4N4CCCn5nc(C(=O)NC(C)C)c(C)c5C4)C3)c12 [Example 371, 5-(7-(8-ethyl-7-fluoro-3-hydroxynaphthalen-1-yl)-2-(((2R,7aS)-2-fluorohexahydro-1H-pyrrolizin-7a-yl)methoxy)-5,6,7,8-tetrahydropyrido[3,4-d]pyrimidin-4-yl)-N-isopropyl-3-methyl-5,6,7,8-tetrahydro-4H-pyrazolo[1,5-a][1,4]diazepine-2-carboxamide] | 98% | 9.9 nM | 96% | 9 nM | 3 nM | 3 nM | < 2 nM | 35 nM | – | 187 nM | 89% | 91% | 5 nM | < 2 nM | 2 nM | 5080 nM | 87% | 86% | 79% | 101% | –
CCc1c(C(=O)N(C)C)nn2c1CN(c1nc(OC[C@@]34CCCN3C[C@H](F)C4)nc3c1CCN(c1cc(O)cc4ccc(F)c(CC)c14)C3)CCC2 [Example 372, 3-ethyl-5-(7-(8-ethyl-7-fluoro-3-hydroxynaphthalen-1-yl)-2-(((2R,7aS)-2-fluorohexahydro-1H-pyrrolizin-7a-yl)methoxy)-5,6,7,8-tetrahydropyrido[3,4-d]pyrimidin-4-yl)-N,N-dimethyl-5,6,7,8-tetrahydro-4H-pyrazolo[1,5-a][1,4]diazepine-2-carboxamide] | 99% | 3.1 nM | 99% | 10 nM | 2 nM | 2 nM | < 2 nM | 11 nM | – | 54 nM | 99% | 99% | 5 nM | < 2 nM | < 2 nM | 2010 nM | 98% | 98% | 72% | 104% | inhibition at 0.1 µM (ASPC1 cells; ASPC1, single point at 100 nM, 3 hrs compound incubation): 95%; inhibition at 0.1 µM (H727 cells; NCI-H727, single point at 100 nM, 3 hrs compound incubation): 76%
CCc1c(F)ccc2cc(O)cc(N3CCc4c(nc(OC[C@@]56CCCN5C[C@H](F)C6)nc4N4CCCn5nc(C(=O)N(C)CCOCCOC)cc5C4)C3)c12 [Example 373, 5-(7-(8-ethyl-7-fluoro-3-hydroxynaphthalen-1-yl)-2-(((2R,7aS)-2-fluorohexahydro-1H-pyrrolizin-7a-yl)methoxy)-5,6,7,8-tetrahydropyrido[3,4-d]pyrimidin-4-yl)-N-(2-(2-methoxyethoxy)ethyl)-N-methyl-5,6,7,8-tetrahydro-4H-pyrazolo[1,5-a][1,4]diazepine-2-carboxamide] | 99% | 6.6 nM | 99% | 11 nM | 2 nM | 2 nM | < 2 nM | 14 nM | – | 48 nM | 97% | 96% | 4 nM | < 2 nM | < 2 nM | 4150 nM | 96% | 96% | 72% | 93% | –
